Measured values published in PMC10726440, “N-Biphenyl Pyrrolinones and Dibenzofurans as RNA-Binding Protein LIN28 Inhibitors Disrupting the LIN28–Let-7 Interaction” (ACS Medicinal Chemistry Letters, 2023).
pIC50: −log10 of the molar value.

What was measured:
[1] = molecular target: T1, LIN28A(16–187)–let-7 interaction (Homo sapiens, UniProt Q9H9Z2); assay: Electrophoretic mobility shift assay (EMSA), disruption of LIN28–let-7 complex; assay type: binding
T1 construct: LIN28A(16–187) or LIN28B(24–111); pET19a or pMAL vector) (cleaved yes); made in house; host or cells: Escherichia coli BL21(DE3)
T1 sequence (Q9H9Z2 16-187): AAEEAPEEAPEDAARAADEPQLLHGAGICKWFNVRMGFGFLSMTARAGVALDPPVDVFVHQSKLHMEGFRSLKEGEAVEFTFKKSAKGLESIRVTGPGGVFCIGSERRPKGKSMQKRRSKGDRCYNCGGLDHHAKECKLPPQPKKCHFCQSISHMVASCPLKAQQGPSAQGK
Procedure: (§1) Inhibition of the LIN28–let-7 complex was evaluated by electrophoretic mobility shift assays. Mixtures containing compound at indicated concentrations, LIN28A(16–187) or LIN28B(24–111), and recombinant ribonuclease inhibitor (TaKaRa Bio) were incubated at room temperature for 2 h. The reaction buffer contained 50 mM TRIS, pH 7.5, 100 mM NaCl, 10 mM β-mercaptoethanol, 50 μM ZnCl2, 2% DMSO, 0.01% Tween-20 and 12% glycerol. Cy-3-fluorophore labeled RNA, (pre-E let-7f-1-Cy3, Mus musculus, […]-Cy3, purchased from IDT) was added to the reaction and incubated for further 15 min. The final concentrations were as follows: 10 nM LIN28A or 200 nM LIN28B, 5 nM RNA. Of each mixture, 10 μL was analyzed on a nondenaturing PAGE (5.3% acrylamide TAE PAGE for full-length LIN28 and 10% acrylamide TAE PAGE for analysis of the CSD) prerun for 1 h without sample and run for 1 h at 220 V at 4 °C in 0.25× TAE buffer. Gels were imaged using a ChemiDoc MP instrument (Bio-Rad Laboratories). Band intensities were analyzed using ImageJ and inhibition was quantified by calculation of the ratio of free RNA fluorescence to the fluorescence of the protein–RNA complex, and normalization to free RNA and LIN28–let-7 complex controls. The intensity ratio was analyzed by nonlinear regression fit in GraphPad Prism to determine the IC50 values.

LIN28B–let-7 interaction = molecular target: T2, LIN28B–let-7 interaction (Homo sapiens, UniProt Q6ZN17); assay: EMSA with LIN28B; assay type: binding; settings: Figure S3
T2 construct: residues 24–111 of the LIN28B cold shock domain; pET19a or pMAL vector) (cleaved yes); made in house; host or cells: Escherichia coli BL21(DE3)
T2 sequence (Q6ZN17 24-111): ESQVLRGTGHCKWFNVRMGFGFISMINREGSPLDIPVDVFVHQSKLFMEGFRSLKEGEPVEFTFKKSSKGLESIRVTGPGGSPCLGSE
Procedure: as §1

[2] = tested on: mature let-7d and let-7i levels in JAR cells; assay: qPCR of mature let-7 miRNA levels in JAR cells; assay type: cell-based; settings: 24 h
Procedure: Nano differential scanning fluorimetry (nanoDSF)
Compounds (final concentration 75 µM) were incubated with LIN28A (16-126) CSD protein for 45 minutes at room temperature in a buffer containing 30 mM NaH2PO4, 50 mM NaCl and 1 mM MgCl2 at pH 8.0. Thermal protein stability was determined using NanoTemper Prometheus NT.48 with a temperature ramp from 20 °C to 90 °C increasing the temperature by 1 °C per minute. Melting temperatures were determined using the software of the device.
(§2) Biolayer Interferometry (BLI)
Recombinant LIN28A CSD was biotinylated with EZ-Link Sulfo NHS-LC-LC-Biotin (Thermo Fisher Scientific) following the manufacturer's guidelines with a labeling ratio of one biotin per protein. Free biotin reagent was removed during dialysis against buffer (20 mM HEPES pH 7.5, 150 mM NaCl, 1 mM MgCl2). […] The association and dissociation of compounds were recorded in a buffer containing 20 mM HEPES pH 7.5, 150 mM NaCl, 1 mM MgCl2, 0.05 % Tween 20, 1 % DMSO and 0.3 mg/mL BSA. Data was measured and analyzed using an Octet Red384 instrument (Sartorius). […]
For computational docking analysis of pyrrolinones 11S/R to the RNA binding site of LIN28A (PDB code: 5UDZ)1 Schrödinger® Maestro 12.3 was used. […] The glide dock module was used and the results were evaluated according to interactions between small molecules and LIN28A, small molecule orientations, docking scores and solvent exposure patterns. […]

LIN28A CSD = molecular target: T3, LIN28A CSD (Homo sapiens, UniProt Q9H9Z2); assay: Biolayer interferometry (BLI); assay type: binding
T3 construct: residues 16–126 of the LIN28A cold shock domain; pET19a or pMAL vector) (cleaved yes); made in house; host or cells: Escherichia coli BL21(DE3)
T3 sequence (Q9H9Z2 16-126): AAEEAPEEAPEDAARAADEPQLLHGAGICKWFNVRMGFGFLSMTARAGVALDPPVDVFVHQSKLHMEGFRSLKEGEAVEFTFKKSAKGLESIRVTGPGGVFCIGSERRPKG
Procedure: as §2
Recombinant LIN28A CSD was biotinylated with EZ-Link Sulfo NHS-LC-LC-Biotin (Thermo Fisher Scientific) following the manufacturer's guidelines with a labeling ratio of one biotin per protein. Free biotin reagent was removed during dialysis against buffer (20 mM HEPES pH 7.5, 150 mM NaCl, 1 mM MgCl2). After loading optimization, the protein was immobilized on SA biosensors (Sartorius). The association and dissociation of compounds were recorded in a buffer containing 20 mM HEPES pH 7.5, 150 mM NaCl, 1 mM MgCl2, 0.05 % Tween 20, 1 % DMSO and 0.3 mg/mL BSA. Data was measured and analyzed using an Octet Red384 instrument (Sartorius). Double referencing against samples without compound and sensors loaded with 10 µg/mL biocytin instead of protein was performed. […]
Master Mix II, with UNG (A pplied Biosystems) and a CFX Connect Real -Time PCR System

pIC50 ([1]; concentration-dependent EMSA, some values estimated, read-out: IC50 in dose–response EMSA): 4.57 | inhibition at 75 µM ([1]; single concentration of 75 μM, read-out: inhibition of the LIN28–let-7 interaction measured in EMSA): 95% | inhibition of the LIN28B–let-7 interaction in EMSA (in words) (LIN28B–let-7 interaction): concentration-dependent manner | direct binding to the LIN28 CSD in biolayer interferometry (in words) (LIN28A CSD): concentration-dependent binding
Compound: O=C(C1=C(O)C(=O)N(c2cccc(-c3ccccc3)c2)C1c1ccc([N+](=O)[O-])cc1)c1ccccc1 (centres unmarked) [Compound 11]
effect on biogenesis of mature let-7i and let-7d miRNAs (in words) [2]: concentration-dependent manner
